Test results from patent US20130309379A1, “Anti-Fungal Composition” (DSM IP ASSETS B.V., priority 2005, published 2013).

Legend:
[1] = tested on: Saccharomyces cerevisiae ATCC 9763; assay: Microbiological method for determining natamycin release rate from a loaded filter paper disc into seeded agar (inhibition zone); assay type: physicochemical
Source text: The test used to measure the natamycin release rate has been described in example 1 of this application. Briefly, the sample comprising natamycin is applied to a carrier. The carrier can be any material that provides unlimited water transport. Preferably, the carrier is a filter paper disc, more preferably the filter paper disc used in example 1. Subsequently, the carrier loaded with the natamycin composition is applied to the surface of an agar plate seeded with yeast or fungal cells (in example 1 Saccharomyces cerevisiae cells were used). The agar plate and the carrier are subsequently incubated at a temperature such that the natamycin is released into the agar. (in example 1, the temperature chosen is 6° C.) during 24 hours. After having removed the carrier from the agar plate, the agar plate is incubated under growth permitting conditions for said cells (in example 1, the temperature is 30° C.) during a chosen period. In this case, the period is 24 hours or 48 hours depending on the type of release rate desired to be determined. Finally, inhibition of cell growth in the agar due to the presence of the natamycin, which has been released from the carrier into the agar, is determined. The size of the inhibition zone is a measure of the natamycin released from the sample. […] The discs were then put on agar, which was seeded with the Saccharomyces cerevisiae ATCC 9763. The petri dishes containing the agar were then stored for 24 hours at 6° C. to permit the natamycin to release into the agar. […] As a reference, discs were freshly loaded with a range of known amounts of natamycin dissolved in aqueous methanol. The next day, the sample discs were transferred to new petri dishes containing agar seeded with Saccharomyces cerevisiae. New discs freshly loaded with a range of known quantities of dissolved natamycin were prepared for use as a reference. The new dishes with the sample discs and the new reference were stored at 6° C. for 24 hours and the old dishes containing the released natamycin incubated at 30° C. for 24 hours. The size of the inhibition zone is a measure of the natamycin released from the sample disc. The amount of released natamycin can be calculated by methods know per se. By repeating the procedure, the released natamycin can be measured on a daily basis. Other release time periods may alternatively be chosen. Using the method described in example 1, the release rate profile of the new slow release natamycin was compared to the release rate profile of known commercial natamycin DELVOCID® (DSM, The Netherlands). Suspensions of the natamycin preparations were prepared in such a manner that each suspension contained 800 ppm natamycin as such. 50 μl of each of the respective mixtures was applied on a paper filter disc and the release rate was analysed using the method of example 1.

[2] = Chemical stability (natamycin degradation) in beverages stored at 4° C.; assay type: physicochemical; details: for Total degradation: 4° C., 150 to 170 ppm natamycin
Description: The release rate of the new slow release natamycin was compared with that of known commercial natamycin DELVOCID® Instant (DSM, The Netherlands) by measuring their chemical stability in various beverages. The natamycin preparations were suspended in beverages to a final concentration of 150 to 170 ppm natamycin. The natamycin containing beverages were stored at 4° C. and the natamycin concentration in the beverage was measured in time.

[3] = tested on: Saccharomyces cerevisiae ATCC 9763; details: carrier on agar surface of 0.6 cm diameter, carrier loading 40 μg; disclosed in U.S. Pat. No. 5,821,233; cited from earlier work
[4] = Initial release rate, 40 μg carrier loading, 0.6 cm disc, 6° C.

C[C@@H]1C/C=C/C=C/C=C/C=C/[C@H](O[C@@H]2O[C@H](C)[C@@H](O)[C@H](N)[C@@H]2O)C[C@@H]2O[C@](O)(C[C@@H](O)C[C@H]3O[C@@H]3/C=C/C(=O)O1)C[C@H](O)[C@H]2C(=O)O [Low release natamycin, natamycin]
Release rate after 11 days ([1]; 5 μg carrier loading): 0.35 μg/24 hours
% decrease in release rate after 9 days ([1]; 10 μg carrier loading): 35%
Release rate after 11 days ([1]; 10 μg carrier loading): 0.6 μg/24 hours
% decrease in release rate after 9 days ([1]; 40 μg carrier loading): 45%
Release rate after 11 days ([1]; 40 μg carrier loading): 1.2 μg/24 hours
Release rate after 24 hours [1, 4]: <2 μg/24 hours
Release rate after 48 hours [1, 4]: <1.8 μg/24 hours
Release rate compared with DELVOCID ([1]; comparison in words): lower release rate
Total degradation ([2]; Ice tea pH 3.2, 1 week): 3.4 ppm
Total degradation ([2]; Ice tea pH 3.2, 2 weeks): 5.4 ppm
Total degradation ([2]; Ice tea pH 3.2, 3 weeks): 3.2 ppm
Total degradation ([2]; Ice tea pH 3.2, 4 weeks): 15.0 ppm
Total degradation ([2]; Ice tea pH 3.2, 5 weeks): 17.4 ppm
Difference in total degradation (DELVOCID Instant minus slow release natamycin) ([2]; Ice tea, 1 week): 11.5 ppm
Difference in total degradation (DELVOCID Instant minus slow release natamycin) ([2]; Ice tea, 2 weeks): 11.1 ppm
Difference in total degradation (DELVOCID Instant minus slow release natamycin) ([2]; Ice tea, 3 weeks): 12.1 ppm
Difference in total degradation (DELVOCID Instant minus slow release natamycin) ([2]; Ice tea, 4 weeks): 13.2 ppm
Difference in total degradation (DELVOCID Instant minus slow release natamycin) ([2]; Ice tea, 5 weeks): 14.3 ppm
Total degradation ([2]; Tomato juice pH 4.2, 1 week): 5.1 ppm
Total degradation ([2]; Tomato juice pH 4.2, 2 weeks): 13.1 ppm
Total degradation ([2]; Tomato juice pH 4.2, 3 weeks): 20.1 ppm
Total degradation ([2]; Tomato juice pH 4.2, 4 weeks): 23.2 ppm
Total degradation ([2]; Tomato juice pH 4.2, 5 weeks): 28.9 ppm
Difference in total degradation (DELVOCID Instant minus slow release natamycin) ([2]; Tomato juice, 1 week): 3.5 ppm
Difference in total degradation (DELVOCID Instant minus slow release natamycin) ([2]; Tomato juice, 2 weeks): 0.6 ppm
Difference in total degradation (DELVOCID Instant minus slow release natamycin) ([2]; Tomato juice, 3 weeks): 6.4 ppm
Difference in total degradation (DELVOCID Instant minus slow release natamycin) ([2]; Tomato juice, 4 weeks): 4.7 ppm
Difference in total degradation (DELVOCID Instant minus slow release natamycin) ([2]; Tomato juice, 5 weeks): 3.7 ppm
Release rate compared with DELVOCID Instant in beverages ([2]; tomato juice and ice tea, inferred from degradation, in words): lower

C[C@@H]1C/C=C/C=C/C=C/C=C/[C@H](O[C@@H]2O[C@H](C)[C@@H](O)[C@H](N)[C@@H]2O)C[C@@H]2O[C@](O)(C[C@@H](O)C[C@H]3O[C@@H]3/C=C/C(=O)O1)C[C@H](O)[C@H]2C(=O)O [natamycin]
Release rate over the first 24 hours [3]: at least 3 μg/24 hours
